Experimental findings from ChEMBL document CHEMBL1201862, “PubChem BioAssay data set” (2004) are described below.

What all share (experiment): DTP human tumour cell line panel, 48 h
In assay [1] the test system is A498.
Assay [2] has as its system DU-145.
The subject of assay [3] is HCT-116.
Assay [4] relates to HCT-15.
The subject of assay [5] is HOP-62.
For assay [6], the system named is HOP-92.
For assay [7], the system named is HT-29.
The test system of assay [8] is K562.
Assay [9] deals with MDA-MB-435.
Assay [10] has as its system NCI-H226.
Assay [11] deals with OVCAR-3.
In assay [12] the test system is OVCAR-5.
The test system of assay [13] is OVCAR-8.
Assay [14] deals with PC-3.
Assay [15] concerns SF-295.
In assay [16] the test system is SK-MEL-2.
The test system of assay [17] is SK-OV-3.
Assay [18] relates to TK-10.
Assay [19] has as its system UACC-62.
Assay [20] has as its system UO-31.

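Briefly, cells in 96-well plates were exposed to five compound concentrations for 48 h, and endpoints were estimated by linear interpolation. At the GI50, growth is halved.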 The source made the active and inactive calls. Rule as the data show it: active = GI50 up to about 1.1 µM and inactive = higher.

For orientation: GI50 means the concentration giving 50% growth inhibition. For `c1ccc2cc(NCNc3ccc4ccccc4c3)ccc2c1`, the GI50 in assay [1] was 19.9 µM (inactive); in assay [2], 14.4 µM (inactive); in assay [3], 16.7 µM (inactive); in assay [4] it was 15.6 µM; in assay [5], 19.5 µM (inactive); in assay [6], 1.27 µM (inactive). In addition, the GI50 in [7] was 19 µM (inactive); in assay [8], 0.951 µM (active); in assay [9] it was 1.78 µM (inactive); in assay [10], 17.2 µM (inactive); in assay [11], 5.69 µM (inactive); in [12], 21.3 µM (inactive). The GI50 in assay [13] was 17.5 µM (inactive); in assay [14], 15.5 µM (inactive); in assay [15], 15.2 µM (inactive); in assay [16], 8.17 µM (inactive); in [17], 33.6 µM (inactive); in assay [18], 21.7 µM (inactive). Also, the figures for the GI50 in [19] and in assay [20] were 14.7 µM (inactive) and 13.7 µM (inactive), respectively.

Take `Cc1ncc(CO)c(/C=N/CCCCCC/N=C/c2c(CO)cnc(C)c2[O-])c1[O-].[Mg+2]`: the GI50 in [1] was > 100 µM (inactive); in assay [2], > 100 µM (inactive); in assay [3], > 100 µM (inactive); in [4], greater than 100 µM; in assay [5] it was > 100 µM (inactive); in [6], > 44.6 µM (inactive). Further, the GI50 in assay [7], in [8], in assay [9], in [10], in assay [11] and in assay [12] was > 100 µM (inactive) throughout. Moreover, the GI50 in assay [13] is > 67.9 µM (inactive); in assay [14], > 100 µM (inactive); in assay [15], > 100 µM (inactive); in assay [16] it was > 100 µM (inactive); in [17], > 100 µM (inactive); in assay [18], > 100 µM (inactive). Moreover, the GI50 in assay [19] and in [20] was > 100 µM (inactive) in each case.

Regarding `Nc1ccn(C2CCC(CO)O2)c(=O)n1` (stereo not given), the GI50 in assay [1] is > 91.8 µM (inactive); in assay [2], 719 µM (inactive); in assay [3], > 100 µM (inactive); in assay [4], greater than 100 µM; in assay [5] it was > 100 µM (inactive); in assay [6], > 100 µM (inactive). Moreover, the GI50 in assay [7] was > 100 µM (inactive); in assay [8], > 100 µM (inactive); in assay [9] it was > 1000 µM (inactive); in [10], > 93.5 µM (inactive); in [11], > 100 µM (inactive); in assay [12], > 100 µM (inactive). The GI50 was 156 µM (inactive) in assay [13]; > 1000 µM (inactive) in assay [14]; > 100 µM (inactive) in assay [15]; > 100 µM (inactive) in assay [16]; > 100 µM (inactive) in assay [17]; > 1000 µM (inactive) in assay [18]. For the same compound, the GI50 in [19] was > 100 µM (inactive); in assay [20], 836 µM (inactive).

Consider `CN(C)CC1CCC/C(=C\c2ccc(OC(=O)/C=C/c3ccc(Cl)cc3)cc2)C1=O` (stereo not given), for which the GI50 is 8.53 µM (inactive) in assay [1]; 5.2 µM (inactive) in assay [2]; 3.56 µM (inactive) in assay [3]; 2.01 µM in [4]; 6.25 µM (inactive) in [5]; 1.57 µM (inactive) in [6]. For the same compound, the GI50 in assay [7] is 2.07 µM (inactive); in assay [8], 1.23 µM (inactive); in assay [9], 5.28 µM (inactive); in assay [10] it was 11 µM (inactive); in assay [11], 4.97 µM (inactive); in assay [12], 16.7 µM (inactive). In addition, the GI50 in [13] was 5.62 µM (inactive); in assay [14] it was 5.35 µM (inactive); in assay [15], 7.6 µM (inactive); in [16] it was 9.82 µM (inactive); in assay [17] it was 21.3 µM (inactive); in assay [18], 1.31 µM (inactive). The GI50 in [19] was 8.81 µM (inactive); in [20], 4.99 µM (inactive).

Consider `CC(=O)NCC1OC2COC(c3ccccc3)OC2C(NC(=O)c2ccccc2)C1OC(=O)c1ccccc1` (stereo not given), for which the GI50 was 44.5 µM (inactive) in [1]; > 100 µM (inactive) in assay [2]; > 100 µM (inactive) in assay [3]; greater than 100 µM in [4]; > 100 µM (inactive) in assay [5]; > 100 µM (inactive) in assay [6]. In addition, the GI50 in assay [7], in assay [8], in assay [9], in assay [10], in assay [11] and in [12] was > 100 µM (inactive) each time. The GI50 in [13] was > 100 µM (inactive); in [14] it was 33.3 µM (inactive); in assay [15], > 100 µM (inactive); in assay [16], > 100 µM (inactive); in assay [17], > 100 µM (inactive); in [18], > 100 µM (inactive). Further, the GI50 in assay [19] and in assay [20] was > 100 µM (inactive) in each case.

For `O=C1Nc2ccccc2S/C1=C\c1ccc(C(F)(F)F)cc1`, the GI50 was > 100 µM (inactive) in assay [1]; > 100 µM (inactive) in [2]; > 100 µM (inactive) in [3]; greater than 100 µM in assay [4]; > 100 µM (inactive) in assay [5]; > 100 µM (inactive) in [6]. The GI50 in assay [7], in [8], in [9], in assay [10], in assay [11] and in assay [12] was > 100 µM (inactive) each time. For the same compound, the GI50 in assay [13], in assay [14], in assay [15], in assay [16], in assay [17] and in assay [18] was > 100 µM (inactive) throughout. Further, the GI50 was > 100 µM (inactive) in assay [19] and 94 µM (inactive) in assay [20].

As for `N#Cc1c(-c2ccc([N+](=O)[O-])cc2)c2c([nH]c1=O)-c1ccccc1CCC2`, the GI50 was 46.3 µM (inactive) in [1]; 28.1 µM (inactive) in assay [2]; 60.4 µM (inactive) in assay [3]; 31.3 µM in [4]; 40.5 µM (inactive) in [5]; 1.48 µM (inactive) in assay [6]. Besides, the GI50 in assay [7] is 55.3 µM (inactive); in [8], 36.7 µM (inactive); in assay [9], 67.1 µM (inactive); in [10], 44 µM (inactive); in assay [11] it was 31.8 µM (inactive); in assay [12], > 100 µM (inactive). Besides, the GI50 was 55.3 µM (inactive) in [13]; 80.2 µM (inactive) in assay [14]; 37.2 µM (inactive) in [15]; 97.9 µM (inactive) in [16]; > 100 µM (inactive) in assay [17]; > 100 µM (inactive) in [18]. Moreover, the GI50 in assay [19] is 28.1 µM (inactive); in [20] it was 86.3 µM (inactive).

Consider `N[C@H]1c2c(Br)sc(Br)c2C(=O)[C@H]1O`, for which the GI50 was > 100 µM (inactive) in assay [1]; 20.3 µM (inactive) in [2]; 16.4 µM (inactive) in assay [3]; 6.78 µM in [4]; 18.2 µM (inactive) in [5]; 21.5 µM (inactive) in [6]. For the same compound, the GI50 in assay [7] was 11.2 µM (inactive); in assay [8], 3.44 µM (inactive); in [9] it was 13.7 µM (inactive); in assay [10], 22.2 µM (inactive); in assay [11] it was 7.36 µM (inactive); in assay [12] it was 22 µM (inactive). In addition, the GI50 was 12.9 µM (inactive) in assay [13]; 28.5 µM (inactive) in assay [14]; 21.7 µM (inactive) in [15]; 23.9 µM (inactive) in [16]; 12.3 µM (inactive) in assay [17]; 96.8 µM (inactive) in [18]. The GI50 in [19] was 6.79 µM (inactive); in assay [20], 20.3 µM (inactive).

For `COc1cc(/C=C2\CC(C)C/C(=C\c3ccc(O)c(OC)c3)C2=O)ccc1O` (stereo not given), the GI50 is 2.52 µM (inactive) in [1]; 3.72 µM (inactive) in assay [2]; 1.77 µM (inactive) in assay [3]; 1.73 µM in assay [4]; 3.46 µM (inactive) in assay [5]; 2.92 µM (inactive) in [6]. Moreover, the GI50 in assay [7] was 6.37 µM (inactive); in [8] it was 4.48 µM (inactive); in assay [9], 2.32 µM (inactive); in assay [10], 4.85 µM (inactive); in assay [11] it was 2.8 µM (inactive); in [12], 19.6 µM (inactive). For the same compound, the GI50 in assay [13] is 9.2 µM (inactive); in assay [14], 4 µM (inactive); in assay [15], 10.6 µM (inactive); in assay [16], 4.53 µM (inactive); in [17], 3.49 µM (inactive); in [18], 5.45 µM (inactive). Besides, the GI50 in assay [19] was 1.85 µM (inactive); in assay [20], 2.24 µM (inactive).

For `COc1ccc2c(c1)OCC1(O)Cc3ccccc3OC21` (stereo not given), the GI50 was > 100 µM (inactive) in [1]; > 100 µM (inactive) in [2]; > 100 µM (inactive) in [3]; greater than 100 µM in [4]; > 100 µM (inactive) in assay [5]; > 100 µM (inactive) in assay [6]. Moreover, the GI50 in assay [7], in assay [8], in assay [9], in [10], in assay [11] and in assay [12] was > 100 µM (inactive) in each case. Also, the GI50 in assay [13], in assay [14], in assay [15], in [16], in [17] and in assay [18] was > 100 µM (inactive) in each case. The GI50 in assay [19] and in [20] was > 100 µM (inactive) in each case.
